Data as given in the supplement of paper PMC10307832.

How the values were obtained:
Experiment in all cases: relative viability (nuclei count vs DMSO), 5 days (fraction); higher = more cells survive
[1] = tested on: NCI-H1355
Summary of the method: (§1)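 The day after seeding in 1536-well plates, lung cancer cell lines were treated by pin tool with a single drug, or with a fixed anchor-drug dose together with five library-drug doses (not always all listed) in √10 steps. After 5 days, a combined fix-and-stain solution (final 0.05% Triton X-100, 1% formaldehyde, 1 ug/ml Hoechst) was added. Nuclei counted on 4× images gave relative viability as treated counts over vehicle counts, reported as the median of duplicate plates.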

[2] = tested on: NCI-H1437
Summary of the method: as §1

[3] = tested on: NCI-H441
Summary of the method: as §1

[4] = tested on: LOU-NH91
Summary of the method: as §1

[5] = tested on: CAL-12T
Summary of the method: as §1

[6] = tested on: NCI-H2023
Summary of the method: as §1

[7] = tested on: NCI-H460
Summary of the method: as §1

[8] = tested on: HCC-44
Summary of the method: as §1

[9] = tested on: NCI-H358
Summary of the method: as §1

[10] = tested on: NCI-H1650
Summary of the method: as §1

[11] = tested on: NCI-H1651
Summary of the method: as §1

[12] = tested on: NCI-H1975
Summary of the method: as §1

[13] = tested on: NCI-H838
Summary of the method: as §1

[14] = tested on: NCI-H2342
Summary of the method: as §1

[15] = tested on: NCI-H1395
Summary of the method: as §1

[16] = tested on: LCLC-103H
Summary of the method: as §1

[17] = tested on: NCI-H2085
Summary of the method: as §1

[18] = tested on: NCI-H1755
Summary of the method: as §1

[19] = tested on: HCC-15
Summary of the method: as §1

[20] = tested on: HCC-366
Summary of the method: as §1

[21] = tested on: EKVX
Summary of the method: as §1

[22] = tested on: NCI-H1734
Summary of the method: as §1

[23] = tested on: BEN
Summary of the method: as §1

`CC(C)Oc1cc(Nc2nc(N[C@@H](C)c3ccc(F)cn3)ncc2Cl)n[nH]1` [AZ23] + CC(=O)c1c(C)c2cnc(Nc3ccc(N4CCNCC4)cn3)nc2n(C2CCCC2)c1=O [Palbociclib] (partner 0.5 µM) gave a relative viability ([1]; first compound 0.01 µM) of 0.437, a relative viability ([1]; first compound 0.03162 µM) of 0.455 and a relative viability ([1]; first compound 0.3162 µM) of 0.375. It also gave a relative viability ([2]; first compound 0.01 µM) of 0.304, a relative viability ([2]; first compound 0.03162 µM) of 0.324 and a relative viability ([2]; first compound 0.3162 µM) of 0.335. For the same compound, the relative viability ([3]; first compound 0.01 µM) was 0.199, the relative viability ([3]; first compound 0.03162 µM) was 0.198 and the relative viability ([3]; first compound 0.3162 µM) was 0.202. The relative viability ([4]; first compound 0.01 µM) was 0.574, the relative viability ([4]; first compound 0.03162 µM) was 0.544 and the relative viability ([4]; first compound 0.3162 µM) was 0.546. It also gave a relative viability ([5]; first compound 0.03162 µM) of 0.285, a relative viability ([5]; first compound 0.3162 µM) of 0.414 and a relative viability ([6]; first compound 0.03162 µM) of 0.369. It also gave a relative viability ([6]; first compound 0.3162 µM) of 0.264, a relative viability ([7]; first compound 0.01 µM) of 0.0638 and a relative viability ([7]; first compound 0.03162 µM) of 0.146. The relative viability ([7]; first compound 0.3162 µM) was 0.127, the relative viability ([8]; first compound 0.01 µM) was 0.982 and the relative viability ([8]; first compound 0.03162 µM) was 0.994. The relative viability ([8]; first compound 0.3162 µM) was 0.93, the relative viability ([9]; first compound 0.01 µM) was 0.129 and the relative viability ([9]; first compound 0.03162 µM) was 0.141. For the same compound, the relative viability ([9]; first compound 0.3162 µM) was 0.13, the relative viability ([10]; first compound 0.01 µM) was 0.303 and the relative viability ([10]; first compound 0.03162 µM) was 0.439. It also gave a relative viability ([10]; first compound 0.3162 µM) of 0.378, a relative viability ([11]; first compound 0.01 µM) of 0.523 and a relative viability ([11]; first compound 0.03162 µM) of 0.526. It also gave a relative viability ([11]; first compound 0.3162 µM) of 0.505, a relative viability ([12]; first compound 0.01 µM) of 0.534 and a relative viability ([12]; first compound 0.03162 µM) of 0.703. The relative viability ([12]; first compound 0.3162 µM) was 0.591, the relative viability ([13]; first compound 0.01 µM) was 0.227 and the relative viability ([13]; first compound 0.03162 µM) was 0.23. For the same compound, the relative viability ([13]; first compound 0.3162 µM) was 0.247, the relative viability ([14]; first compound 0.01 µM) was 0.516 and the relative viability ([14]; first compound 0.03162 µM) was 0.511. It also gave a relative viability ([14]; first compound 0.3162 µM) of 0.509, a relative viability ([15]; first compound 0.03162 µM) of 0.694 and a relative viability ([15]; first compound 0.3162 µM) of 0.641. For the same compound, the relative viability ([16]; first compound 0.01 µM) was 0.485, the relative viability ([16]; first compound 0.03162 µM) was 0.421 and the relative viability ([16]; first compound 0.3162 µM) was 0.503. For the same compound, the relative viability ([17]; first compound 0.01 µM) was 0.435, the relative viability ([17]; first compound 0.03162 µM) was 0.469 and the relative viability ([17]; first compound 0.3162 µM) was 0.435. For the same compound, the relative viability ([18]; first compound 0.01 µM) was 0.472, the relative viability ([18]; first compound 0.03162 µM) was 0.488 and the relative viability ([18]; first compound 0.3162 µM) was 0.49. It also gave a relative viability ([19]; first compound 0.01 µM) of 0.881, a relative viability ([19]; first compound 0.03162 µM) of 0.757 and a relative viability ([19]; first compound 0.3162 µM) of 0.799. It also gave a relative viability ([20]; first compound 0.01 µM) of 0.303, a relative viability ([20]; first compound 0.03162 µM) of 0.513 and a relative viability ([20]; first compound 0.3162 µM) of 0.458. For the same compound, the relative viability ([21]; first compound 0.01 µM) was 0.392, the relative viability ([21]; first compound 0.03162 µM) was 0.414 and the relative viability ([21]; first compound 0.3162 µM) was 0.358. For the same compound, the relative viability ([22]; first compound 0.01 µM) was 0.317, the relative viability ([22]; first compound 0.03162 µM) was 0.366 and the relative viability ([22]; first compound 0.3162 µM) was 0.359. For the same compound, the relative viability ([23]; first compound 0.01 µM) was 0.475, the relative viability ([23]; first compound 0.03162 µM) was 0.458 and the relative viability ([23]; first compound 0.3162 µM) was 0.455.
